Assay results published in patent US20020106342A1, “Methods for treating atopic disorders” (priority 2000, published 2002).

System: skin fungal conditions
Test: Patients with skin fungal conditions treated with griseovulvin and an appropriate antibiotic, emollients ceased (Example 6)
Assay type: in vivo, human
Description: Most patients received an antihistamine for the first ten days to control itch. The patients ceased the use of lotions and other emollients, as well as the use of local and systemic corticosteroids.

## COC1=CC(=O)C[C@@H](C)[C@]12Oc1c(Cl)c(OC)cc(OC)c1C2=O [griseovulvin]
Patient A, after 35 days of treatment
  Appearance of "dry skin": cleared up considerably
Patient B, one week later
  Fungus on skin: improved dramatically
Patient C, after treatment
  Fungus on skin: significantly improved
Patient D, after seven weeks
  Fungus growth on back of neck: significantly diminished
Patient F, after seven weeks of treatment
  Fungal condition of skin: improving and peeling off
Patient G, after seven weeks
  Fungal infection tinea barbae: significantly cleared
Patient H, after nine weeks of treatment
  Skin with hair follicles infected by fungus: dramatically improved
